“Also recorded” adds a separate entry of the source. *: point of attachment. X1 = CC[N+]1=C(/C=C/C=C/C=C2N(CCCCCC(=O)NCCN3C(=O)CC(*)C3=O)c3ccc(S(=O)(=O)O)cc3C2(C)C)C(C)(C)c2cc(S(=O)(=O)[O-])ccc21
Experiments:
[1] = system: guinea pig circulating neutrophils; experiment: Labelling of fixed guinea pig neutrophils; type: cell-based
Method: (§1) Polymorphonuclear neutrophils purification. Human polymorphonuclear neutrophils were purified as described previously (Monceaux et al. 2016). Briefly, plasma was removed by centrifugation (450×g, 15 min); blood cells were resuspended in 0.9% NaCl solution supplemented with 0.72% Dextran. After red blood cells sedimentation, white blood cells were pelleted and further separated on a two layer Percoll (GE Healthcare) (51%−42%) by centrifugation (at 240×g, 20 min). PBMC (top layer) were isolated from polymorphonuclear neutrophils (bottom layer). Red blood cells were removed from the latter fraction using CD235a (glycophorin) microbeads (negative selection) (Miltenyi Biotec). PBMCs and polymorphonuclear neutrophils were resuspended in the autologous plasma. Guinea pig and mouse polymorphonuclear neutrophils were purified with the same procedure.

[2] = target: T1, human purified lactoferrin (Homo sapiens, UniProt P02788); experiment: Lactoferrin polymers immunofluorescence labelling; type: binding; settings: PNGase treatment; listed as MUB40-Cy5
T1 construct: purchased Sigma-Aldrich L1294
Method: Lactoferrin polymerization. Human purified lactoferrin (ref: L1294, Sigma-Aldrich) was resuspended in deionized H2O (35 μg/mL). Lactoferrin was incubated in RPMI+10 mM Hepes supplemented with 10 mM FeCl3, at indicated concentrations (0.35 or 3.5 μg/mL) onto 24-well plates containing 12 mm coverslips overnight at 37° C., adapted from similar lactoferrin polymerization experiments performed in iron saturated phosphate buffer (Mantel et al. 1994).
Lactoferrin deglycolysation. About 10 μg of human purified lactoferrin (ref: L1294, Sigma-Aldrich) was treated by Peptide-N-Glycosidase F (PNGaseF, New England Biolabs, Ipswich Mass., USA) for N-deglycosylation. Protein was treated exactly as described in manufacturer protocol. Twelve unit of PNGase F were added for 4 h at 37° C. for the removal of N-glycosylation.
Lactoferrin polymers interaction with MUB40-Cy5. Lactoferrin polymers were centrifuged at 2000 rpm for 10 min and fixed in Paraformaldehyde (PFA) 4% for one hour. Lactoferrin polymers were immunolabeled in PBS+0.1% saponin (Sigma-Aldrich) with a mouse anti-lactoferrin primary monoclonal antibody (Hycult biotech, clone 265-1K1, 1:50 dilution) and an anti-mouse-FITC conjugated secondary antibody (1:1000), together with MUB40-Cy5 (SEQ ID NO: 3) (1 μg/mL). Slides were washed three times in PBS and three times in deionized H2O and mounted with prolong gold^tm mounting media.

[3] = system: recruited neutrophils and secreted lactoferrin; experiment: Labelling of human inflamed tissue biopsies; settings: malignant fibrous histiocytoma and streptococcal skin abscess biopsies, 1 μg/mL
Excerpt: Human inflammatory tissues. Human biopsies from patients diagnosed for malignant fibrous histiocytoma and for a streptococcal skin abscess were collected and processed at the Kremlin Bicêtre Hospital, Anatomy and Pathological Histology Department. Tissue samples were fixed in formaldehyde and further embedded in paraffin. 10 μm sections were obtained using a microtome (Leica Biosystem). Tissues were labeled with a mouse anti-lactoferrin primary monoclonal antibody (Hycult biotech, clone 265-1K1, 1:50 dilution), MUB40-Cy5 (SEQ ID NO: 3) (1 μg/mL), and Dapi (1:1000 dilution) as described below.

[4] = target: trypsin (Sus scrofa, UniProt P00761); settings: trypsin digestion, 37°C, pH8, followed up to 24 h
Method: Trypsin proteolysis. MUB40 (SEQ ID NO: 3)-Cy5 and RI-MUB40 (SEQ ID NO: 2)-Cy5 were dissolved in 50 mM ammonium bicarbonate, pH 8. Prior to digestion and owing to the propensity of maleimide derivatives to undergo ring-opening in a basic environment (Fontaine et al., 2015), we incubated both peptides at 37° C. overnight. Ring-opening completion was checked before trypsin addition. […] Lyophilized trypsin (Thermo scientific) was reconstituted using 50 mM acetic acid, diluted with 50 mM ammonium bicarbonate and added to the peptide solution so as to obtain a final peptide concentration of 0.25 mg/mL and a protease to protein ratio of 1:20 (w/w). Samples were directly incubated on the injection sampler thermostated at 37° c. HPLC and LC-MS analyses were performed as previously described above, applying a 15% to 40% linear gradient of acetonitrile in 10 mM ammonium acetate over 20 minutes.
Hydrolysis experiments were done in solution at 37° c., pH8 and monitored by HPLC by measuring the peak area of the remaining intact peptides.

[5] = system: Human hematopoietic stem cells (CD34+); experiment: Labelling of hematopoietic stem cells and derived neutrophils; type: cell-based
Method: Hematopoietic Stem cells (CD34+) purification, proliferation and differentiation. HSC were purified from cytapheresis products with a CD34 Microbead Kit Ultrapure, according to the manufacturer procedure (Miltenyi). Lin^−/CD34+ HSC purity yield was >98%. CD34+ HSC were cultured in StemSpan SFEM II supplemented with SCF (100 ng/ml), IL-3 (10 ng/ml), and IL-6 (100 ng/ml) at 37° C. with 5% CO2. Neutrophil differentiation was induced in StemSpan SFEM II containing G-CSF (10 ng/ml), SCF (100 ng/ml), and IL-3 (10 ng/ml) for 13 days at 37° C. with 5% CO2.

[6] = system: mouse circulating neutrophils; experiment: Labelling of fixed mouse neutrophils; type: cell-based
Method: as §1

T1 sequence (P02788 20-710): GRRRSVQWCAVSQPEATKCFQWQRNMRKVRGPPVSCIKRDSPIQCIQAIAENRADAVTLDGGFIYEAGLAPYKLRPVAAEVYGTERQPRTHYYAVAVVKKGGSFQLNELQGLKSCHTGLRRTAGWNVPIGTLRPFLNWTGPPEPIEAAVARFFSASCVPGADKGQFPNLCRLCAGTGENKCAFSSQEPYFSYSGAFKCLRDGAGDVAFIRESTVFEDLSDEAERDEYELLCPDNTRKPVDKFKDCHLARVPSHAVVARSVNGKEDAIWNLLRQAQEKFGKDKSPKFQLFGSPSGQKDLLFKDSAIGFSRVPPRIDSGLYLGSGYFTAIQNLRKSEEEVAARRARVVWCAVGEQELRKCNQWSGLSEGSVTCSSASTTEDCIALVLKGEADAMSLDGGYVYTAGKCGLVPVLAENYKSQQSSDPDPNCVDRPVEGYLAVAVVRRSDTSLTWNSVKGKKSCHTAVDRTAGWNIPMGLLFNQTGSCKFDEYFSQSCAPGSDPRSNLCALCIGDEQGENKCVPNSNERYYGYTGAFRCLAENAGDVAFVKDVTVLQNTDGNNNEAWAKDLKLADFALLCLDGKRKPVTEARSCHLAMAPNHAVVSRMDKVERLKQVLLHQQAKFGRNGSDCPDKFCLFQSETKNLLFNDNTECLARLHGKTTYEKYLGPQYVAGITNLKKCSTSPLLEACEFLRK
Sequence of trypsin (P00761 9-231): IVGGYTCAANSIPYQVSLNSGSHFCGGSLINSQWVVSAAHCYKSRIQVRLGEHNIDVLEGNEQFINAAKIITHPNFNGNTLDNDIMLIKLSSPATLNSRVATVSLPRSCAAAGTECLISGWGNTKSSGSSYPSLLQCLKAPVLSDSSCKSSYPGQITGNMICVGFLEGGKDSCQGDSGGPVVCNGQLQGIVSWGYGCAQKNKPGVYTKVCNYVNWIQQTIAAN

Substance: Ac-C(X1)TAEGIKKFEGDGYELFKDNFPAGEKFDNDDTNDQFYTVIF-NH2 [Cy5-MUB40#1]
- labelling of neutrophils [1]: efficiently labeled
- labelling of deglycosylated lactoferrin [2]: no longer labelled; also recorded: abolished
- labelling of recruited neutrophils and secreted lactoferrin [3]: labeled
- degradation by trypsin (in words) [4]: almost completely degraded within 3 h
- labelling after differentiation in polymorphonuclear neutrophils ([5]; G-CSF, IL-3, IL-6, 2 weeks): positive staining
- labelling of hematopoietic stem cells ([5]; during proliferation): not labelled
- labelling of neutrophils [6]: efficiently labeled

From patent US11472844B2, “Peptidomimetics, method of synthesis and uses thereof” (priority 2017, dated 2022)
